# Like-named read-outs stand apart in the source and are kept apart here.
# How the values were obtained:
# HeLa cells [1] = experiment: Kinetic changes in levels of NO and ROS in HeLa cells, wide-field fluorescence microscopy (Example 3); assay type: cell-based, Human; settings: 1 mM L-arginine; for time after treatment at which DAQ signal (NO) was detectable: 1 μM A23187, FIG. 5A; for NO levels (DAQ signal) / ROS production (FIGS. 5B and 5C): 10-60 min treatment; for NO levels (DAQ signal): 1 μM A23187, 0.2 mM antimycin A, 0.1 mM pyocyanin or combination, FIG. 5A; for ROS production (FIGS. 5B and 5C): 0.2 mM antimycin A, 0.1 mM pyocyanin
# Protocol: HeLa cells were cultured and plated as described in Example 1. On the day of the experiment, cells were loaded with 50 μM of DAQ, 1 l-1M of DCFDA and HE for 2 h, 37° C. and induced with different ROS and NO inducers (1 μM of A23187, 0.2 mM of antimycin A, 1 mM of L-arginine, 0.1 mM of pyocyanin or combination of L-arginine and pyocyanin) at 37° C. Samples for fluorescent microscopy were prepared after 10, 20, 30, 45 and 60 min of treatment as described in Example 1 and analyzed using an Olympus wide field fluorescent microscope (set of filters as described in the Table 2).
# [2] = cited from earlier work
# cells = settings: cited from earlier work
# HeLa cells [3] = experiment: ROS/RNS production in HeLa cells, triple staining DAQ/DCFDA/HE, wide-field fluorescence microscopy (Example 1); assay type: cell-based, Human; settings: for effect of pretreatment on ROS production induced by pyocyanin: NAG 5 mM, 3C; for effect of pretreatment on green fluorescence upon combination treatment with L-arginine and pyocyanin: HeLa cells pretreated, ebselen 20 μM, 3D
# Protocol: Human cervical adenocarcinoma epithelial cell line HeLa was obtained from ATCC (ATTC, Manassas, Va.) and was routinely cultured in Dulbecco's modified eagle medium with low glucose (Sigma-Aldrich, St. Louis, Mo.), supplemented with 10% fetal bovine serum heat inactivated (ATCC) and 100 U/ml penicillin, […] streptomycin (Sigma). Cell cultures were maintained in an incubator at 37° C., with 5% CO2 atmosphere. Three ROS/RNS fluorescent probes were dissolved in anhydrous DMF at the following concentrations: DAQ-20 mM (a 400× stock solution), DCFDA-5 mM (a 5000× stock solutions), DHE-5 mM (a 5000× stock solution). Anhydrous organic solvents should be used with DMF being the first choice, since DMSO is a hydroxyl radical scavenger and its presence may affect ROS/RNS production in cellular systems. Stock solutions of the dyes were aliquoted and stored at −20° C. The day before the experiment, HeLa cells were seeded on multiwell microscope slides (Gel-Line™ Brand, Portsmouth, N.H.) at a density of 2×10^4 cells per well. On the next day, the cells were loaded with 50 μM of DAQ, 1 μM of DCFDA and HE (all dilutions were made in growth medium) for 2 h, 37° C. Then the medium containing dyes was removed, the cells were briefly washed with PBS and induced with L-arginine (1 mM), pyocyanin (100 μM) or their combination for 20 min. […] Pretreated cells were induced as described earlier, overlaid with a cover slip and observed under fluorescence microscope.
# HeLa cells [4] = experiment: Multiplexed ROS/RNS detection in HeLa cells by flow cytometry (Example 4); assay type: cell-based, Human; settings: for NO production (fluorescence of oxidized DAQ product in FL4): one hour treatment; for NO production (fluorescence of oxidized DAQ product in FL4) / effect of pretreatment on L-arginine-induced FL4 (NO) signal: FIG. 6 top panel
# Protocol: HeLa cells were cultured as described in Example 1. The day before the experiment, the cells were seeded in 6-well tissue culture dishes at a density of 5×10^5 cells per well. On the day of the experiment, the cells were loaded with 50 μM of DAQ, 1 l-1M of DCFDA and HE (solution in culture medium) for 2 h, 37° C. and induced with L-arginine, pyocyanin or their combination, as described in Example 1. To confirm specificity and selectivity of the staining, parallel samples were treated with NAG (general ROC inhibitor) and cPTIO (general NO scavenger and NOS inhibitor). After one hour treatment, the cells were washed with PBS, trypsinized and resuspended in 0.5 ml of PBS. After resuspension, the cells were immediately analyzed by flow cytometry using FAGS Calibur instrument (or any benchtop cytometer equipped with blue and red lasers could be used). Green fluorescence of oxidized DCF was detected in the FL1 channel (excitation with 488 nm blue laser, emission detection with 530/30 BP filter), red fluorescence of DHE was detected in the FL2 channel (excitation with 488 nm blue laser, emission detection with 585/42 BP filter). Fluorescence of oxidized DAQ product was detected in the FL4 channel (excitation with 635 nm red laser, emission detection with 670 LP filter). There was substantial overlap between the oxidized dye spectra; therefore, compensation was required. For compensation purposes, singly stained samples were prepared and compensation was performed using standard protocols.
# HeLa cells [5] = experiment: Profiling of ROS induced in HeLa cells by different ROS inducers, DCFDA/HE staining, wide-field fluorescence microscopy (Example 2); assay type: cell-based, Human; settings: for ROS types induced (green DCF and orange HE fluorescence): HeLa cells, inducer 1 h 37° C., 0.5 mM pyrogallol, 0.1 mM pyocyanin, 0.1 mM TBHP, FIG. 4A
# Protocol: For purposes of simplifying the assay description, this example was carried out with only two indicator probes, though analogous procedures were employed as in the case where three fluorophores were utilized. Human cervical carcinoma cell line HeLa was cultured as described in Example 1. The day before the experiment, the cells were seeded in multi-well microscope slides (Gel-Line™, Portsmouth, N.H.) at a density of 2×10^4 cells per well. […] After a brief wash with PBS, the cells were stained with 1 l-1M of DGFDA and HE in culture medium for 30 min, 37° C., washed twice with PBS, overlaid with a cover slip and observed under the fluorescent microscope, using green and orange filters described in the Table 2 (FIG. 4A). To perform specific profiling of ROS/RNS, parallel samples of HeLa cells were pretreated for 30 min with 5 mM NAG (general ROS scavenger, FIG. 4B), 5 mM Tiron (specific superoxide scavenger, FIG. 4C), 10 mM pyruvate (specific peroxide scavenger, FIG. 4D). Pretreated cells were induced as described, overlaid with a cover slip and observed under fluorescent microscope using the same set of filters.
# [6] = ROS-generating system: •OH; cited from earlier work
# [7] = ROS-generating system: ONOO−; cited from earlier work
# [8] = ROS-generating system: •OCl; cited from earlier work
# [9] = ROS-generating system: 1O2; cited from earlier work
# [10] = ROS-generating system: O2•−; cited from earlier work
# [11] = ROS-generating system: H2O2; cited from earlier work
# [12] = ROS-generating system: NO; cited from earlier work
# [13] = ROS-generating system: ROO−; cited from earlier work
# [14] = neutral pH and extremes of pH; cited from earlier work
# [15] = HeLa cells induced 20 min, L-arginine 1 mM, pyocyanin 100 μM or combination, FIG. 3A
# [16] = HeLa cells pretreated 1 h, cPTIO 20 μM, FIG. 3B
# [17] = FIG. 6 middle and bottom panels
# [18] = HeLa cells pretreated with 20 μM ebselen, FIG. 3D
compound,measurement,setting,value
CNc1ccc2oc(C[C@H]3O[C@@]4(CC[C@H]3C)O[C@H]([C@H](C)C(=O)c3ccc[nH]3)[C@H](C)C[C@H]4C)nc2c1C(=O)O [A23187],time after treatment at which DAQ signal (NO) was detectable,HeLa cells [1],20 min
"Nc1cc2ccccc2cc1N [DAN, 2,3-diamino naphthalene]",solubility in aqueous solution,[2],poorly soluble
same,cellular toxicity,cells,high cellular toxicity
N=C(N)NCCC[C@H](N)C(=O)O [L-arginine],"NO production (oxidized DAQ fluorescence, Cy5 filter)",HeLa cells [3]; [15],extensive NO production
same,time after treatment at which DAQ signal (NO) was detectable,HeLa cells [1],10 min
same,NO levels (DAQ signal),HeLa cells [1],high levels of NO production
same,ROS production (FIGS. 5B and 5C),HeLa cells [1],No significant ROS production
same,NO production (fluorescence of oxidized DAQ product in FL4),HeLa cells [4],induced NO production
O=S(=O)(O)c1cc(O)c(O)c(S(=O)(=O)O)c1 [Tiron],effect of pretreatment on green fluorescence in pyrogallol-treated cells,"HeLa cells [5]; HeLa cells pretreated 30 min, 5 mM Tiron or 10 mM pyruvate, FIG. 4C, 4D",green fluorescence was increased
same,effect of pretreatment on orange fluorescence (superoxide),"HeLa cells [5]; HeLa cells pretreated 30 min with 5 mM Tiron, then inducers, FIG. 4C",attenuated only orange fluorescence in all treated cells
"CC(=O)N[C@@H](CS)C(=O)O [NAG, N-acetyl-L-cysteine]",effect of pretreatment on ROS production induced by pyocyanin,HeLa cells [3]; [16],attenuated ROS induction
same,general levels of NO production in pretreated cells,"HeLa cells [3]; HeLa cells pretreated with 5 mM NAG, FIG. 3C",increased
same,effect of pretreatment on production of ROS types,"HeLa cells [5]; HeLa cells pretreated 30 min with 5 mM NAG, then inducers, FIG. 4B",abolished the production of all ROS types
same,effect of pretreatment on pyocyanin-induced ROS production (FL1 and FL2),HeLa cells [4]; [17],blocked
same,effect of pretreatment on L-arginine-induced FL4 (NO) signal,HeLa cells [4],not
"CC(C)(C)OO [TBHP, tert-butyl hydroperoxide]",ROS types induced (green DCF and orange HE fluorescence),HeLa cells [5],majority of peroxide/hydroxyl radicals/peroxynitrite
antimycin A,NO levels (DAQ signal),HeLa cells [1],did not induce any DAQ-detectable signal
same,ROS production (FIGS. 5B and 5C),HeLa cells [1],early induction of ROS
"O=C(O)c1ccccc1-c1c2ccc(=O)cc-2oc2cc(Oc3ccc(O)cc3)ccc12 [HPF, 2-[6-(4′-hydroxyl)phenoxy-3H-xanthen-3-on-9-yl]benzoic acid]",Fluorescence increase,[6],730
same,Fluorescence increase,[7],120
same,Fluorescence increase,[8],6
same,Fluorescence increase,[9],5
same,Fluorescence increase,[10],8
same,Fluorescence increase,[11],2
same,Fluorescence increase,[12],6
same,Fluorescence increase,[13],17
"CC1(C)N([O])C(c2ccc(C(=O)[O-])cc2)=[N+]([O-])C1(C)C.[K+] [cPTIO, 2-(4-carboxyphenyl)-4,5-dihydro-4,4,5,5-tetramethyl-1H-imidazolyl-1-oxy-3-oxide, potassium salt]",effect of pretreatment on ROS production induced by pyocyanin,HeLa cells [3]; [16],did not affect ROS production
same,effect of pretreatment on NO production upon L-arginine induction,HeLa cells [3]; [16],completely abrogated NO production
same,effect of pretreatment on green fluorescence upon combination treatment with L-arginine and pyocyanin,"HeLa cells [3]; cPTIO 20 μM, FIG. 3B",green fluorescence decreased
same,effect of pretreatment on L-arginine-induced FL4 (NO) signal,HeLa cells [4],blocked
"Nc1ccc(Oc2ccc3c(-c4ccccc4C(=O)O)c4ccc(=O)cc-4oc3c2)cc1 [APF, 2-[6-(4′-amino)phenoxy-3H-xanthen-3-on-9-yl]benzoic acid]",Fluorescence increase,[6],1200
same,Fluorescence increase,[7],560
same,Fluorescence increase,[8],3600
same,Fluorescence increase,[9],9
same,Fluorescence increase,[10],6
same,Fluorescence increase,[11],1
same,Fluorescence increase,[12],1
same,Fluorescence increase,[13],2
"Nc1ccc2c(c1N)C(=O)c1ccccc1C2=O [DAQ, 1,2-diaminoanthraquinone]",pH stability,[14],"stable at neutral pH, as well as at extremes of pH"
"O=C1OC2(c3cc(Cl)c(O)cc3Oc3cc(O)c(Cl)cc32)c2ccccc21 [OCFH, 2′,7′-dichlorofluorescein]",Fluorescence increase,[6],7400
same,Fluorescence increase,[7],6600
same,Fluorescence increase,[8],86
same,Fluorescence increase,[9],26
same,Fluorescence increase,[10],67
same,Fluorescence increase,[11],190
same,Fluorescence increase,[12],150
same,Fluorescence increase,[13],710
Oc1cccc(O)c1O [pyrogallol],ROS types induced (green DCF and orange HE fluorescence),HeLa cells [5],induced mostly superoxide production
Cn1c2cccc(=O)c-2nc2ccccc21 [pyocyanin],"NO production (oxidized DAQ fluorescence, Cy5 filter)",HeLa cells [3]; [15],did not affect NO production
same,"superoxide production (HE fluorescence, orange filter)",HeLa cells [3]; [15],induced superoxide production
same,ROS types induced (green DCF and orange HE fluorescence),HeLa cells [5],majority of superoxide
same,NO levels (DAQ signal),HeLa cells [1],did not induce any DAQ-detectable signal
same,ROS production (FIGS. 5B and 5C),HeLa cells [1],early induction of ROS
same,ROS production detected in FL1 and FL2 channels,HeLa cells [4]; [17],induced significant ROS production
same,NO production (fluorescence of oxidized DAQ product in FL4),HeLa cells [4],did not induce significant NO production
"O=c1c2ccccc2[se]n1-c1ccccc1 [ebselen, 2-phenyl-1,2-benzisoselenazol-3[2H]-one]",effect of pretreatment on levels of NO or superoxide in the combination treated sample,HeLa cells [3]; [18],did not restore the original levels of NO or superoxide
same,effect of pretreatment on peroxynitrite,HeLa cells [3]; [18],inactivated peroxynitrite upon its production
same,effect of pretreatment on green fluorescence upon combination treatment with L-arginine and pyocyanin,"HeLa cells [3]; cPTIO 20 μM, FIG. 3B",decreased significantly
